# Test results as given in publication PMC8997165, “Transcriptional CDK Inhibitors as Potential Treatment Option for Testicular Germ Cell Tumors” (Cancers, 2022).
# How the values were obtained:
# Type in all cases: cell-based, human
# MPAF cells = experiment: XTT cell viability assay, MPAF fibroblast control; conditions: for IC50: XTT viability
# Protocol: (§1) The following cell lines were used 2102EP, 2102EP-R, NCCIT, NCCIT-R (all ECs), TCam2 (seminoma cell line), FS1 (Sertoli cell line) and MPAF (human adult fibroblast cell line). Cells were cultivated as described previously. In brief, the ECs were cultivated in Dulbecco’s modified Eagle’s medium (DMEM) supplemented with 10% fetal bovine serum (FBS), 1% penicillin–streptomycin and […] L-glutamine. FS1 cells were grown in DMEM supplemented with 20% FSB, 1% penicillin–streptomycin, 200 mM L-glutamine and 1% nonessential amino acids (NEAA). MPAF cells were cultured in DMEM supplemented with 10% FBS, 1% penicillin–streptomycin, 200 mM L-glutamine and 1% NEAA. TCam2 cell line was cultured in RPMI medium supplemented with 10% FBS, 1% penicillin–streptomycin and […] L-glutamine. All cell lines were kept at 37 °C and 7.5% CO2. 2102EP and NCCIT were a kind gift from Prof. Dr. L. Looijenga (Princess Máxima Center for Pediatric Oncology, Utrecht, The Netherlands). Cisplatin-resistant lines 2102EP-R and NCCIT-R were obtained from PD Dr. F. Honecker (Breast and Tumor Center, ZeTup Silberturm, St. Gallen, Switzerland). MPAFs were a kind gift from […] (Bonn University, Institute of Reconstructive Neurobiology, Bonn, Germany). FS1 cells were obtained from Prof. Dr. V. Schumacher (Boston Children’s Hospital, Department of Urology; Harvard Medical School, Department of Surgery, Boston, MA, USA).
# (§2) The assay was performed based on the reduction in XTT tetrazolium salt as described previously. In summary, 3000 cells were seeded per well of a 96-well cell culture plate in 100 µL of cell culture medium. The next day, cells were treated with CDK inhibitor or CDK degrader for 24/48/72 h. For XTT assay, 0.6 mg/mL XTT sodium salt was dissolved in cell culture medium (DMEM or RPMI) and supplemented with 25 µM electron carrier N-methyl dibenzopyrazine methyl sulfate (PMS). A total of 50 µL of XTT/PMS was added to each well and incubated for 4 h at 37 °C, 7.5% CO2. For readout, absorption was measured at 450 nm and 650 nm. Specific XTT signal (450 nm) was subtracted by nonspecific absorbance (650) and blank (cell culture medium). Averages of technical triplicates were calculated, and treated sample was referenced to the corresponding dimethyl sufoxide (DMSO) control. Experiment was repeated several times to obtain biological replicates. For statistical analysis, two-tailed Student’s t-test was applied.
# TGCT cell lines = experiment: XTT cell viability assay, summarised over TGCT tumor cell lines; conditions: for viability (XTT): EC cell lines (2102EP, 2102EP-R, NCCIT, NCCIT-R); for IC50: Homo sapiens, 72 h, tumor (TGCT) cell lines, XTT viability, read-out: IC50 at 72 h, range over tumor cell lines
# Protocol: as §1, §2
# FS1 cells = experiment: XTT cell viability assay, FS1 Sertoli control
# Protocol: as §1, §2
# NCCIT-R cells = experiment: XTT cell viability assay, NCCIT-R (cisplatin-resistant)
# Protocol: as §1, §2
# TCam2 cells = experiment: XTT cell viability assay, TCam2
# Protocol: as §1, §2
# 2102EP-R cells = experiment: XTT cell viability assay, 2102EP-R (cisplatin-resistant)
# Protocol: as §1, §2
# 2102EP cells = experiment: XTT cell viability assay, 2102EP
# Protocol: as §1, §2
# NCCIT cells = experiment: XTT cell viability assay, NCCIT
# Protocol: as §1, §2
# [1] = system: TGCT and control cell lines; experiment: 7AAD/AnnexinV FACS apoptosis analysis, TGCT and control cell lines; conditions: 100 nM, 24 and 48 h
# Protocol: (§3) Cells were seeded in 6-well cell culture plates (1.5 × 10^5 cells/well). […] For cell cycle analysis, cells were harvested after 20 h of treatment and resuspended in PBS. Ice-cold methanol was added dropwise while shaking until 70% methanol v/v was reached. Cells were incubated for 2 h at 4 °C and subsequently washed twice with cold PBS. Staining (2 µg/mL Hoechst-33342, 50 µg/mL RNaseA in PBS) was performed for 30 min at 37 °C. The cell cycle distribution was measured in an FACS Canto (BD BioSciences, Heidelberg, Germany) and analyzed using FlowJo™ v10.8 Software (BD BioSciences, Heidelberg, Germany). For apoptosis analysis, PE AnnexinV Apoptosis Detection Kit with 7-AAD (BioLegend, San Diego, CA USA) was used according to the manufacturer’s manual. Measurement was performed in an FACS Canto while analysis was performed in the corresponding BD FACSDiva software^TM (BD BioSciences, Heidelberg, Germany). Two-tailed Student’s t-test was applied for calculation of significance.
# [2] = system: TGCT and control cell lines; experiment: Hoechst-FACS cell cycle analysis; conditions: 20 h; NVP2 and SY0351 10 nM, YKL-5-124 and THZ531 100 nM
# Protocol: as §3
smiles,measurement,setting,value
"CCc1cnn2c(NCc3ccc[n+]([O-])c3)cc(N3CCCC[C@H]3CCO)nc12 [Dinaciclib, dinaciclib]",sensitivity (XTT viability),MPAF cells,almost resistant
same,viability (XTT),TGCT cell lines; 1 nM,strong decrease in viability
"CN1CC[C@H](c2c(O)cc(O)c3c(=O)cc(-c4ccccc4Cl)oc23)[C@H](O)C1 [Flavo-Piridol, flavopiridol]",sensitivity (XTT viability),MPAF cells,almost resistant
same,IC50,"MPAF cells; Homo sapiens, Fibroblast, 24 h",> 1000 nM
same,IC50,"MPAF cells; Homo sapiens, Fibroblast, 48 h",> 1000 nM
same,IC50,"MPAF cells; Homo sapiens, Fibroblast, 72 h",> 1000 nM
same,viability (XTT),TGCT cell lines; 50 nM,strong decrease in viability
same,IC50,TGCT cell lines,7.5 to 273 nM
same,IC50,"FS1 cells; Homo sapiens, FS1, 24 h",> 1000 nM
same,IC50,"FS1 cells; Homo sapiens, FS1, 48 h",696 nM
same,IC50,"FS1 cells; Homo sapiens, FS1, 72 h",91.5 nM
same,IC50,"NCCIT-R cells; Homo sapiens, 24 h",639 nM
same,IC50,"NCCIT-R cells; Homo sapiens, 48 h",107 nM
same,IC50,"NCCIT-R cells; Homo sapiens, 72 h",43.3 nM
same,IC50,"TCam2 cells; Homo sapiens, TCam2, 24 h",> 1000 nM
same,IC50,"TCam2 cells; Homo sapiens, TCam2, 48 h",582 nM
same,IC50,"TCam2 cells; Homo sapiens, TCam2, 72 h",273 nM
same,IC50,"2102EP-R cells; Homo sapiens, 24 h",> 1000 nM
same,IC50,"2102EP-R cells; Homo sapiens, 48 h",21.9 nM
same,IC50,"2102EP-R cells; Homo sapiens, 72 h",7.56 nM
same,IC50,"2102EP cells; Homo sapiens, 24 h",> 1000 nM
same,IC50,"2102EP cells; Homo sapiens, 48 h",39.9 nM
same,IC50,"2102EP cells; Homo sapiens, 72 h",18 nM
same,IC50,"NCCIT cells; Homo sapiens, 24 h",710 nM
same,IC50,"NCCIT cells; Homo sapiens, 48 h",21.9 nM
same,IC50,"NCCIT cells; Homo sapiens, 72 h",34.1 nM
CC(C)(C)c1cnc(CSc2cnc(NC(=O)C3CCN(CC(=O)NCCOCCOCCOCCNc4cccc5c4C(=O)N(C4CCC(=O)NC4=O)C5=O)CC3)s2)o1 (centres unmarked) [THAL-SNS-032],viability (XTT),MPAF cells; 1 and 10 nM,not affected
same,viability (XTT),MPAF cells; 100 and 500 nM,minimal decrease in viability
same,IC50,"MPAF cells; Homo sapiens, Fibroblast, 24 h",> 1000 nM
same,IC50,"MPAF cells; Homo sapiens, Fibroblast, 48 h",> 1000 nM
same,IC50,"MPAF cells; Homo sapiens, Fibroblast, 72 h",> 1000 nM
same,IC50,TGCT cell lines,30 to 40 nM
same,IC50,"FS1 cells; Homo sapiens, FS1, 24 h",> 1000 nM
same,IC50,"FS1 cells; Homo sapiens, FS1, 48 h",> 1000 nM
same,IC50,"FS1 cells; Homo sapiens, FS1, 72 h",> 1000 nM
same,IC50,"TCam2 cells; Homo sapiens, TCam2, 24 h",140 nM
same,IC50,"TCam2 cells; Homo sapiens, TCam2, 48 h",76.7 nM
same,IC50,"TCam2 cells; Homo sapiens, TCam2, 72 h",39.6 nM
same,IC50,"2102EP cells; Homo sapiens, 24 h",164 nM
same,IC50,"2102EP cells; Homo sapiens, 48 h",39.5 nM
same,IC50,"2102EP cells; Homo sapiens, 72 h",34.8 nM
same,IC50,"NCCIT cells; Homo sapiens, 24 h",149 nM
same,IC50,"NCCIT cells; Homo sapiens, 48 h",50.6 nM
same,IC50,"NCCIT cells; Homo sapiens, 72 h",30.1 nM
CN(C)C/C=C/C(=O)Nc1ccc(C(=O)Nc2cccc(Nc3ncc(Cl)c(-c4c[nH]c5ccccc45)n3)c2)cc1 [THZ1],IC50,MPAF cells; 24 h,> 1000 nM
same,IC50,MPAF cells; 48 h,> 1000 nM
same,IC50,MPAF cells; 72 h,> 1000 nM
same,IC50,"FS1 cells; FS1, 24 h",> 1000 nM
same,IC50,"FS1 cells; FS1, 48 h",> 1000 nM
same,IC50,"FS1 cells; FS1, 72 h",> 1000 nM
same,IC50,NCCIT-R cells; 24 h,929 nM
same,IC50,NCCIT-R cells; 48 h,145 nM
same,IC50,NCCIT-R cells; 72 h,16.2 nM
same,IC50,"TCam2 cells; TCam2, 24 h",> 1000 nM
same,IC50,"TCam2 cells; TCam2, 48 h",> 1000 nM
same,IC50,"TCam2 cells; TCam2, 72 h",847 nM
same,IC50,2102EP-R cells; 24 h,235 nM
same,IC50,2102EP-R cells; 48 h,16.3 nM
same,IC50,2102EP-R cells; 72 h,9.9 nM
same,IC50,2102EP cells; 24 h,95.6 nM
same,IC50,2102EP cells; 48 h,26.3 nM
same,IC50,2102EP cells; 72 h,6.7 nM
same,IC50,NCCIT cells; 24 h,> 1000 nM
same,IC50,NCCIT cells; 48 h,92.9 nM
same,IC50,NCCIT cells; 72 h,9.3 nM
CN(C)C/C=C/C(=O)Nc1ccc(C(=O)N2CCC[C@@H](Nc3ncc(Cl)c(-c4c[nH]c5ccccc45)n3)C2)cc1 [THZ531],apoptosis induction,[1]; tumor cell lines,moderate increase in apoptosis induction
same,IC50,"MPAF cells; Homo sapiens, Fibroblast, 24 h",> 1000 nM
same,IC50,"MPAF cells; Homo sapiens, Fibroblast, 48 h",> 1000 nM
same,IC50,"MPAF cells; Homo sapiens, Fibroblast, 72 h",> 1000 nM
same,IC50,"FS1 cells; Homo sapiens, FS1, 24 h",> 1000 nM
same,IC50,"FS1 cells; Homo sapiens, FS1, 48 h",> 1000 nM
same,IC50,"FS1 cells; Homo sapiens, FS1, 72 h",> 1000 nM
same,IC50,"NCCIT-R cells; Homo sapiens, 24 h",> 1000 nM
same,IC50,"NCCIT-R cells; Homo sapiens, 48 h",> 1000 nM
same,IC50,"NCCIT-R cells; Homo sapiens, 72 h",137 nM
same,IC50,"TCam2 cells; Homo sapiens, TCam2, 24 h",> 1000 nM
same,IC50,"TCam2 cells; Homo sapiens, TCam2, 48 h",> 1000 nM
same,IC50,"TCam2 cells; Homo sapiens, TCam2, 72 h",> 1000 nM
same,IC50,"2102EP-R cells; Homo sapiens, 24 h",> 1000 nM
same,IC50,"2102EP-R cells; Homo sapiens, 48 h",228 nM
same,IC50,"2102EP-R cells; Homo sapiens, 72 h",164 nM
same,effect on cell cycle,[2],only mild effects on the cell cycle
same,IC50,"2102EP cells; Homo sapiens, 24 h",> 1000 nM
same,IC50,"2102EP cells; Homo sapiens, 48 h",180 nM
same,IC50,"2102EP cells; Homo sapiens, 72 h",74.5 nM
same,IC50,"NCCIT cells; Homo sapiens, 24 h",> 1000 nM
same,IC50,"NCCIT cells; Homo sapiens, 48 h",> 1000 nM
same,IC50,"NCCIT cells; Homo sapiens, 72 h",96.6 nM
C=CC(=O)Nc1ccc(C(=O)Nc2[nH]nc3c2CN(C(=O)N[C@H](CN(C)C)c2ccccc2)C3(C)C)cc1 [YKL-5-124],"apoptosis, fold change over DMSO control",[1],up to 2.8 fold
same,"apoptosis, treatment vs control",[1]; FS1 and MPAF cells,almost no difference between treatment and control
same,IC50,MPAF cells; 24 h,> 1000 nM
same,IC50,MPAF cells; 48 h,> 1000 nM
same,IC50,MPAF cells; 72 h,> 1000 nM
same,viability (XTT),MPAF cells; highest concentration tested (500 nM),unaffected
same,IC50,"FS1 cells; FS1, 24 h",> 1000 nM
same,IC50,"FS1 cells; FS1, 48 h",> 1000 nM
same,IC50,"FS1 cells; FS1, 72 h",95.2 nM
same,IC50,NCCIT-R cells; 24 h,> 1000 nM
same,IC50,NCCIT-R cells; 48 h,> 1000 nM
same,IC50,NCCIT-R cells; 72 h,178 nM
same,IC50,"TCam2 cells; TCam2, 24 h",> 1000 nM
same,IC50,"TCam2 cells; TCam2, 48 h",> 1000 nM
same,IC50,"TCam2 cells; TCam2, 72 h",263 nM
same,IC50,2102EP-R cells; 24 h,> 1000 nM
same,IC50,2102EP-R cells; 48 h,30.5 nM
same,IC50,2102EP-R cells; 72 h,23.6 nM
same,effect on cell cycle,[2],only mild effects on the cell cycle
same,IC50,2102EP cells; 24 h,318 nM
same,IC50,2102EP cells; 48 h,43.6 nM
same,IC50,2102EP cells; 72 h,17.2 nM
same,IC50,NCCIT cells; 24 h,> 1000 nM
same,IC50,NCCIT cells; 48 h,> 1000 nM
same,IC50,NCCIT cells; 72 h,121 nM
